Data from patent US8658604B2, “Template-fixed beta-hairpin peptidomimetics with protease inhibitory activity” (Polyphor Ltd, priority 2005, dated 2014).
Read-outs that look alike come from different tables or passages of the source. Where a SMILES comes first, the peptide text is derived from it.

Experiments:
[1] = target: Coagulation Factor Xa, from uman plasma (Homo sapiens, UniProt P00742); assay: Enzymatic assay, coagulation factor Xa
[2] = target: Trypsin, from human pancreas (Homo sapiens, UniProt P07477); assay: Enzymatic assay, trypsin; details: at 100 μM
[3] = target: Thrombin, from Human Plasma (Homo sapiens, UniProt P00734); assay: Enzymatic assay, thrombin
[4] = system: human red blood cells (hRBC); assay: Hemolysis
Method: The peptides were tested for their hemolytic activity against human red blood cells (hRBC). Fresh hRBC were washed three times with phosphate buffered saline (PBS) by centrifugation for 10 min at 2000×g. Peptides at a concentration of 100 μM were incubated with 20% v/v hRBC for 1 hour at 37° C. The final erythrocyte concentration was approximately 0.9×10^9 cells per ml. A value of 0% and, respectively, 100% cell lysis was determined by incubation of the hRBC in the presence of PBS alone and, respectively, 0.1% Triton X-100 in H2O. […] The 100% lysis value (OD540H20) gave an OD540 of approximately 1.3-1.8. Percent hemolysis was calculated as follows: (OD540peptide/OD540H20)×100%.

[5] = target: Chymotrypsin, from human pancreas (Homo sapiens, UniProt P17538); assay: Enzymatic assay, chymotrypsin
[6] = target: T1, CathepsinG, from human neutrophils (Homo sapiens, UniProt P08311); assay: Enzymatic assay, cathepsin G
T1 sequence (P08311 21-244): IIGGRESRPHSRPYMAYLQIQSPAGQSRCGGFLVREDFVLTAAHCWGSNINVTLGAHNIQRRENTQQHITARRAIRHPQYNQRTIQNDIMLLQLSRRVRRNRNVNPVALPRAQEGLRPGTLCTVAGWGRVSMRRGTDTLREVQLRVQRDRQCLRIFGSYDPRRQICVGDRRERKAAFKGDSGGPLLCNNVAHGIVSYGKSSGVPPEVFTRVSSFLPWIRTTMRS

[7] = system: Tryptase, from human lung; assay: Enzymatic assay, tryptase; details: at 100 μM
[8] = target: Urokinase from human urine (Homo sapiens, UniProt P00749); assay: Enzymatic assay, urokinase
[9] = target: T2, Elastase from human neutrophils (Homo sapiens, UniProt P08246); assay: Enzymatic assay, elastase
T2 sequence (P08246 30-267): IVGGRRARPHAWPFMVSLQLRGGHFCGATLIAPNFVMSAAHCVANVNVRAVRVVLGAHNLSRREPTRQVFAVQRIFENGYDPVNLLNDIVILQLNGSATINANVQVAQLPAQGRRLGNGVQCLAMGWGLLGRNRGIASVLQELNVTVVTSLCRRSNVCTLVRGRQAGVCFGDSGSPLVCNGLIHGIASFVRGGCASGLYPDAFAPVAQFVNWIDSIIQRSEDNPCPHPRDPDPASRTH

Chymase, from human skin = target: T3, Chymase, from human skin (Homo sapiens, UniProt P23946); assay: Enzymatic assay, chymase
T3 sequence (P23946 22-247): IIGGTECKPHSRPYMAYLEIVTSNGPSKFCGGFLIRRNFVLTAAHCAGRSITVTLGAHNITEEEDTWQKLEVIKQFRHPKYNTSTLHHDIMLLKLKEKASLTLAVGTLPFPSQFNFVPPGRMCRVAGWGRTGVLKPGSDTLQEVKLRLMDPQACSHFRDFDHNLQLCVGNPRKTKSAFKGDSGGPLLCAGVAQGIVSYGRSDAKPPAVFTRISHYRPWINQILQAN

HELA cells (Acc57) = assay: Cytotoxicity assay (MTT reduction), HELA cells; format: cell-based; details: Hela cells
Summary of the method: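 HeLa cells were grown for 24 h, then exposed to peptides at 12.5, 25 and 50 μM in triplicate for 48 h at 37 °C. MTT reduction was read at 595 nm and growth % calculated relative to time-zero wells. LC50 interpolated by linear trend at −50% growth, GI50 at 50%.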

Chain of Coagulation Factor Xa, from uman plasma (P00742 235-488 limits assumed): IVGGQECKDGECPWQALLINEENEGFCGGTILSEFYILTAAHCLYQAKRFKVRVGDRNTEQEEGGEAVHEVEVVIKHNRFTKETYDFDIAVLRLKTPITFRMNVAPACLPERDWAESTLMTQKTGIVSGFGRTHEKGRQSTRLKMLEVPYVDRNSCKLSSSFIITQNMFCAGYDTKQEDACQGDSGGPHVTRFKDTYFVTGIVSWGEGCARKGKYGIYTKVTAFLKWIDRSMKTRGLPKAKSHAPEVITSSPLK
Chain of Coagulation Factor Xa, from uman plasma (P00742 41-179 limits assumed): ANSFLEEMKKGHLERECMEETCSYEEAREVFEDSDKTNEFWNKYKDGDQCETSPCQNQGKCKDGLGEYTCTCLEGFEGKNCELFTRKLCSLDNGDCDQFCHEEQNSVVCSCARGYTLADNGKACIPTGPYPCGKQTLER
Chain of Chymotrypsin, from human pancreas (P17538 19-263): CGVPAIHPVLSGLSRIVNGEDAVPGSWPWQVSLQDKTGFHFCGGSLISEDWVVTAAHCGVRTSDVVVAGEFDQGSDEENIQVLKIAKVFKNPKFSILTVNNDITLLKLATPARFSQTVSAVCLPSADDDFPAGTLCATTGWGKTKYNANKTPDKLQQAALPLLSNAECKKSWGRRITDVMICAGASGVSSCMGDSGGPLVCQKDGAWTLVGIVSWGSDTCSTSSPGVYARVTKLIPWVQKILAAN

Structure (SMILES)	FXa at 100 μM % [1]	Trypsin at 100 μM % [2]	Thrombin at 100 μM % [3]	Hemolysis at 100 μM % [4]	Chymotrypsin at 100 μM % [5]	IC50 ([6]; Cathepsin G IC50)	Tryptase at 100 μM % [7]	Urokinase at 100 μM % [8]	IC50 ([9]; Elastase IC50)	Chymase at 100 μM % (Chymase, from human skin)	Cytotoxicity LC50/GI50 Hela cells (HELA cells (Acc57))	IC50 ([6]; read-out: Cathepsin G IC50)	IC50 ([9]; read-out: Elastase IC50)	IC50 [5]
CC[C@H](C)[C@@H]1NC(=O)[C@@H]2CCCN2C(=O)[C@@H]2CCCN2C(=O)[C@H](CC(=O)O)NC(=O)[C@H](CO)NC(=O)[C@H](CCCCN)NC(=O)[C@H]([C@@H](C)O)NC(=O)[C@@H]2CSSC[C@H](NC1=O)C(=O)N[C@@H](Cc1ccc(O)cc1)C(=O)N1CCC[C@@H]1C(=O)N1CCC[C@H]1C(=O)N[C@@H](Cc1ccccc1)C(=O)N2 [Ex. 5] (HELM PEPTIDE1{F.C.T.K.S.D.P.P.I.C.Y.[dP].P}$PEPTIDE1,PEPTIDE1,2:R3-10:R3|PEPTIDE1,PEPTIDE1,1:R1-13:R2$$$V2.0)	0.2%	92%	0.5%	0%	3%	0.056 µM	74%	5.7%	> 100 µM	0%				
CCCC[C@@H]1NC(=O)[C@@H]2CCCN2C(=O)[C@@H]2CCCN2C(=O)[C@H](CC(=O)O)NC(=O)[C@H](CO)NC(=O)[C@H](CCCCN)NC(=O)[C@H]([C@@H](C)O)NC(=O)[C@@H]2CSSC[C@H](NC1=O)C(=O)N[C@@H](CO)C(=O)N1CCC[C@@H]1C(=O)N1CCC[C@H]1C(=O)N[C@@H](Cc1ccccc1)C(=O)N2 [Ex. 15] (HELM PEPTIDE1{F.C.T.K.S.D.P.P.[Nle].C.S.[dP].P}$PEPTIDE1,PEPTIDE1,2:R3-10:R3|PEPTIDE1,PEPTIDE1,1:R1-13:R2$$$V2.0)		95.0%		0%	54.2%	0.056 µM			> 100 µM	12.7%	100 µM			
CCCC[C@@H]1NC(=O)[C@@H]2CCCN2C(=O)[C@@H]2CCCN2C(=O)[C@H](CC(=O)O)NC(=O)[C@H](CO)NC(=O)[C@H](CCCCN)NC(=O)[C@H]([C@@H](C)O)NC(=O)[C@@H]2CSSC[C@H](NC1=O)C(=O)N[C@@H](CO)C(=O)N1CCC[C@@H]1C(=O)N1CCC[C@H]1C(=O)N[C@@H](Cc1ccccc1)C(=O)N2 [Ex. 53] (HELM PEPTIDE1{F.C.T.K.S.D.P.P.[Nle].C.S.[dP].P}$PEPTIDE1,PEPTIDE1,2:R3-10:R3|PEPTIDE1,PEPTIDE1,1:R1-13:R2$$$V2.0)		95%		0%	54%					12.7%	63 µM	0.056 µM	> 100 µM	
CCCC[C@@H]1NC(=O)[C@@H]2CCCN2C(=O)[C@@H]2CCCN2C(=O)[C@H](CC(=O)O)NC(=O)[C@H](CO)NC(=O)[C@H](CCCCN)NC(=O)[C@H]([C@@H](C)O)NC(=O)[C@@H]2CSSC[C@H](NC1=O)C(=O)N[C@@H](CCCNC(=N)N)C(=O)N1CCC[C@@H]1C(=O)N1CCC[C@H]1C(=O)N[C@@H]([C@@H](C)CC)C(=O)N2 [Ex. 57] (HELM PEPTIDE1{I.C.T.K.S.D.P.P.[Nle].C.R.[dP].P}$PEPTIDE1,PEPTIDE1,2:R3-10:R3|PEPTIDE1,PEPTIDE1,1:R1-13:R2$$$V2.0)	32%	94%	11%	0%	0%		82.2%	4%		26.9%		0.041 µM	> 100 µM	
CCCCCC[C@@H]1NC(=O)[C@@H]2CCCN2C(=O)[C@H]2CCCN2C(=O)[C@H](Cc2ccc(O)cc2)NC(=O)[C@@H]2CSSC[C@H](NC1=O)C(=O)N[C@@H]([C@@H](C)O)C(=O)N[C@@H](C)C(=O)N[C@@H](CO)C(=O)N[C@@H]([C@@H](C)CC)C(=O)N1CCC[C@H]1C(=O)N1CCC[C@H]1C(=O)N[C@@H](CCC(N)=O)C(=O)N2 [Ex. 99] (HELM PEPTIDE1{[CCCCCC[C@H](N[*:1])C(=O)[*:2]].C.T.A.S.I.P.P.Q.C.Y.[dP].P}$PEPTIDE1,PEPTIDE1,2:R3-10:R3|PEPTIDE1,PEPTIDE1,1:R1-13:R2$$$V2.0)	0%	30.5%	0%			85.2 µM	0%	17.4%	0.016 µM	0%	58 µM			8.56 µM
CCCCCCCC[C@@H]1NC(=O)[C@@H]2CCCN2C(=O)[C@H]2CCCN2C(=O)[C@H](Cc2ccc(O)cc2)NC(=O)[C@@H]2CSSC[C@H](NC1=O)C(=O)N[C@@H]([C@@H](C)O)C(=O)N[C@@H](C)C(=O)N[C@@H](CO)C(=O)N[C@@H]([C@@H](C)CC)C(=O)N1CCC[C@H]1C(=O)N1CCC[C@H]1C(=O)N[C@@H](CCC(N)=O)C(=O)N2 [Ex. 102] (HELM PEPTIDE1{[CCCCCCCC[C@H](N[*:1])C(=O)[*:2]].C.T.A.S.I.P.P.Q.C.Y.[dP].P}$PEPTIDE1,PEPTIDE1,2:R3-10:R3|PEPTIDE1,PEPTIDE1,1:R1-13:R2$$$V2.0)	0%	0%	1.7%			> 100 µM	0%	0.5%	0.013 µM	0%	55 µM			4.98 µM
CC[C@H](C)[C@@H]1NC(=O)[C@H](CO)NC(=O)[C@H](C)NC(=O)[C@H]([C@@H](C)O)NC(=O)[C@@H]2CSSC[C@H](NC(=O)[C@H](CCC(N)=O)NC(=O)[C@@H]3CCCN3C(=O)[C@@H]3CCCN3C1=O)C(=O)N[C@@H](Cc1ccc(O)cc1)C(=O)N1CCC[C@@H]1C(=O)N1CCC[C@H]1C(=O)N[C@@H](CCc1ccccc1)C(=O)N2 [Ex. 103] (HELM PEPTIDE1{[O=C([C@H](CCc1ccccc1)N[*:1])[*:2]].C.T.A.S.I.P.P.Q.C.Y.[dP].P}$PEPTIDE1,PEPTIDE1,2:R3-10:R3|PEPTIDE1,PEPTIDE1,1:R1-13:R2$$$V2.0)	3%	6.4%	10.2%			> 100 µM	0.6%	9.6%	0.018 µM	0%	47 µM			4.31 µM
CCCC[C@@H]1NC(=O)[C@H](Cc2ccccc2)NC(=O)[C@H]2CCCN2C(=O)[C@H](Cc2ccc(O)cc2)NC(=O)[C@@H]2CSSC[C@H](NC1=O)C(=O)N[C@@H]([C@@H](C)O)C(=O)N[C@@H](C)C(=O)N[C@@H](CO)C(=O)N[C@@H]([C@@H](C)CC)C(=O)N1CCC[C@H]1C(=O)N1CCC[C@H]1C(=O)N[C@@H](CCC(N)=O)C(=O)N2 [Ex. 122] (HELM PEPTIDE1{[Nle].C.T.A.S.I.P.P.Q.C.Y.[dP].F}$PEPTIDE1,PEPTIDE1,2:R3-10:R3|PEPTIDE1,PEPTIDE1,1:R1-13:R2$$$V2.0)	19.6%	19%	0%			35.1 µM	0.2%	11.1%	0.018 µM	6.4%	29 µM			58 µM
